From patent US5939385A, “Transglutaminase cross-linkable polypeptides and methods relating thereto” (ZymoGenetics, Inc., priority 1995, dated 1999)
No end group written: not given here.

Molecular target: T1, recombinant Factor XIII (rFXIIIa) (Homo sapiens, UniProt P00488)
T1 construct: made in house
T1 sequence (P00488 39-732 limits assumed): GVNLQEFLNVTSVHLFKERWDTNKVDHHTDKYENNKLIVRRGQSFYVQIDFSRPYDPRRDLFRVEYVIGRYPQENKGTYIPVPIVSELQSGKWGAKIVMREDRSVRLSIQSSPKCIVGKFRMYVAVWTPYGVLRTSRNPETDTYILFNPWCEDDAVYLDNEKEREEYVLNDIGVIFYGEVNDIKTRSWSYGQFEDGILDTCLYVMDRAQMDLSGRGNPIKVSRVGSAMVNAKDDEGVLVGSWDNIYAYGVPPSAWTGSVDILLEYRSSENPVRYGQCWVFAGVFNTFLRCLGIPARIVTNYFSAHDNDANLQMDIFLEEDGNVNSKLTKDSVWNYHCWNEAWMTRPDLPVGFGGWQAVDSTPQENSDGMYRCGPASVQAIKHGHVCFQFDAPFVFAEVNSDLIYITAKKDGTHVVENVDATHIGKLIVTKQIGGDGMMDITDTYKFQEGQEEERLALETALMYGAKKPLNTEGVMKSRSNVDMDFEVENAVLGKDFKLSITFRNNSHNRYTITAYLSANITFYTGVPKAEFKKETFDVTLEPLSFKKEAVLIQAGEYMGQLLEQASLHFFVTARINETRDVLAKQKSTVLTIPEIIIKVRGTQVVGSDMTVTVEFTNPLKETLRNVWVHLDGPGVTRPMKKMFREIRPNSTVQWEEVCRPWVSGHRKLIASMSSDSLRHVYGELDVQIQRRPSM
Assay: Factor XIII cross-linking assay of test polypeptide substrates (HPLC area % vs time)
Format: biochemical
Conditions: for Monomer Consumption d[S]/dt (rate of substrate utilization) / Crosslinking d(2[S-])/dt (rate of monomer incorporation into dimers) / Hydrolysis d[-NH3]/dt (hydrolysis = deamidation): initial rate, 2mM substrate, 40 ug/ml rFXIIIa (preactivated), 2.0 U/ml Thrombin, 2.5 mM CaCl2, pH 7.4; for Monomer Consumption d[S]/dt (rate of substrate utilization): 125 mM NaCl, 50 mM TrisHCl; for Hydrolysis %: share of hydrolysis (deamidation) relative to hydrolysis plus crosslinking, same reaction conditions
Experimental: Polypeptides are screened for the ability to form transglutaminase-catalyzed cross-links using a cross-linking assay as described in more detail below. […] Each reaction receives 50 mM CaCl2 to a final concentration of 2.5 mM. A negative control for each test substrate is also prepared in which the reaction lacks a transglutaminase (e.g., Factor XIII). A positive control of the fibrinogen polypeptide (The-Ile-Gly-Glu-Gly-Gln-Gln-His-His-Leu-[…]-Gln-Ala-Gly-Asp-Val) is used for each set of reactions. The reactions are initiated by the addition of 40 μg/ml of transglutaminase (e.g., recombinant Factor XIII) followed by 0.1 unit of bovine thrombin (Enzyme Research Laboratories, Inc., South Bend, Ind.) to each solution, except the negative controls. The reactions are incubated in a 37° C. water bath. A time course of 10 μl samples are taken from each reaction at 0 minutes, 30 minutes, 60 minutes, 120 minutes and overnight. The reactions are stopped by boiling for one minute. After the reactions are terminated, each sample is diluted to 50 μl with 40 μl of TBS buffer (120 mM NaCl, 50 mM Tris (pH 7.6)) and the samples are prepared for HPLC analysis.
Each sample is chromatographed on a C-18 reverse phase HPLC column (Vydac, Hesperia, Calif. or the like) using a gradient of 0-40% B in 30 minutes (Solvent A: 0.05% trifluoroacetic acid (TFA) in water and Solvent B: 0.045% TFA in 80% acetonitrile, 20% water) on a Hewlett Packard 1090 Series II HPLC or the like. The signal is detected at a wavelength of 215 nm. The area % of each reaction product is collected and plotted versus time to determine the rates of polypeptide utilization dimer formation and multimer formation. A deamidation ratio is determined by dividing the deamidation rate by the dimerization rate.
The ability of the test polypeptides to form Factor XIII-induced multimers, and the susceptibility of the polypeptides to deamidation were assessed using the method described in detail below.
Approximately 0.5 mg of lyophilized polypeptide was dissolved in 50 mM Tris, 125 mM NaCl (pH 7.6) to give a final concentration of 2 mM by weight. […] Each test polypeptide solution received 50 mM CaCl2 to a final concentration of 2.5 mM. For each reaction, a negative control lacking Factor XIII was included. A positive control of the fibrinogen polypeptide Thr-Ile-Gly-Glu-Gly-Gln-Gln-His-His-Leu-Gly-Gly-Ala-Lys-Gln-Ala-Gly-Asp-Val was used for each set of reactions. The reactions were initiated by the addition of 40 μg/ml of recombinant Factor XIII followed by 0.1 unit of bovine thrombin (Enzyme Research Laboratories, Inc.) to each solution, except the negative controls. The reactions were incubated in a 37° C. water bath. Samples of 10 μl were taken from each reaction at 0 minutes, 30 minutes, 60 minutes, 120 minutes and overnight. The reactions were stopped by boiling for one minutes. The samples were diluted to 50 μl TBS buffer (120 mM NaCl, 50 mM Tris (pH 7.6)), and the samples were prepared for HPLC analysis.
Each reaction was chromatographed on a C-18 reverse phase HPLC column (Vydac, Hesperia, Calif., or the like) using a gradient of 0-40% B in 30 minutes (solvent A: 0.05% TFA in water and Solvent B: 0.045% TFA in 80% acetonitrile/20% water) on a Hewlett Packard 1090 Series II HPLC. The signal was detected at a wavelength of 215 nm. The area % of each reaction product was collected and plotted versus time to determine the rates of polypeptide utilization and dimer formation. A deamidation ratio was determined by dividing the deamidation rate by the dimerization rate. […] The abbreviations used in Table 1 are as follows: d[S]/dt indicates the rate of substrate utilization, d[S2 ]/dt indicates the rate of dimer formation and (-NH2 /S2) indicates the relative rates of deamidation to dimerization. The initial rates were normalized to that of the fibrinogen polypeptide Thr-Ile-Gly-Glu-Gly-Gln-Gln-His-His-Leu-Gly-Gly-Ala-Lys-Gln-Ala-Gly-Asp-Val. […]

Row | Monomer Consumption d[S]/dt (rate of substrate utilization) | Crosslinking d(2[S-])/dt (rate of monomer incorporation into dimers) | Hydrolysis d[-NH3]/dt (hydrolysis = deamidation) | Hydrolysis % [%] | Sequence
1 | -10.0 uM (monomer)/min | 8.8 uM (monomer)/min | 1.4 uM (monomer)/min | 14 | TIGEGQHHLGGAKAGDV [TIGEGQ-- HHLGGAK-- AGDV]
2 | -12.8 uM (monomer)/min | 11.4 uM (monomer)/min | 0.6 uM (monomer)/min | 5 | TIGEGQHHLGGAKQAGDV [TIGEGQ-- HHLGGAKQAGDV]
3 | -20.0 uM (monomer)/min | 16.4 uM (monomer)/min | 5.2 uM (monomer)/min | 24 | TIGEGQQHHLGGAKQAGDV [TIGEGQQHHLGGAKQAGDV, Thr-Ile-Gly-Glu-Gly-Gln-Gln-His-His-Leu-Gly-Gly-Ala-Lys-Gln-Ala-Gly-Asp-Val, reference compound]
4 | 11.0 uM (monomer)/min | 11.0 uM (monomer)/min | 0.0 uM (monomer)/min | 0 | VGGQHHLGGAKQVPG [VGGQ-- HHLGGAKQVPG]
5 | -18.0 uM (monomer)/min | 16.2 uM (monomer)/min | 0.0 uM (monomer)/min | 0 | VGQHHLGGAKVPG [VGQ-- HHLGGAKVPG]
6 | -12.8 uM (monomer)/min | 11.8 uM (monomer)/min | 0.0 uM (monomer)/min | 0 | VPGVGGQHHLGGAKQVPGVG [VPGVGGQ-- HHLGGAKQVPGVG]
7 | -32.0 uM (monomer)/min | 15.0 uM (monomer)/min | 12.5 uM (monomer)/min | 45 | VPGVGLSQSKVGVPGVG [VPGVGLSQSKVGVPGVG]
8 | -20.8 uM (monomer)/min | 15.8 uM (monomer)/min | 1.8 uM (monomer)/min | 10 | VPGVGQHHLGGAKVPGVG [VPGVGQ-- HHLGGAKVPGVG]
